Source: patent publication US9802944B2, “Bicyclic compounds as autotaxin (ATX) and lysophosphatidic acid (LPA) production inhibitors” (Hoffmann-La Roche Inc., priority 2014, dated 2017)

Each compound was assayed against ATX (human His-tagged) (Homo sapiens (Human), UniProt Q13822) (assay: Human ATX enzyme inhibition assay (fluorescence quenching, MR121 substrate)). Settings: 30 nM ATX, 1 μM MR121 substrate, 30° C., pH 8.0.
Assay type: biochemical
Method: Production of Human Full Length ATX, with and without his Tag
Autotaxin (ATX-ENPP2) Cloning:
cDNA was prepared from commercial human hematopoietic cells total RNA and used as template in overlapping PCR to generate a full length human ENPP2 ORF with or without a 3′-6×His tag. These full length inserts were cloned into the pcDNA3.1V5-His TOPO (Invitrogen) vector. The DNA sequences of several single clones were verified. The DNA from a correct full length clone was used to transfect Hek293 cells for verification of protein expression. […] ATX Fermentation: Recombinant protein was produced by large-scale transient transfection in 20 L controlled stirred tank bioreactors (Sartorius). During cell growth and transfection, temperature, stirrer speed, pH and dissolved oxygen concentration were maintained at 37° C., 120 rpm, 7.1 and 30% DO, respectively. […] Expression was analyzed by Western Blot, enzymatic assay and/or analytical IMAC chromatography. After cooling the cell suspension to 4° C. in a flow-through heat exchanger, cell separation and sterile filtration of supernatant was performed by filtration through Zeta Plus 60M02 E16 (Cuno) and Sartopore 2 XLG (Sartorius) filter units. The supernatant was stored at 4° C. prior to purification. ATX Purification: 20 liter of culture supernatant were conditioned for ultrafiltration by adding Brij 35 to a final concentration of 0.02% and by adjusting the pH to 7.0 using 1 M HCl. Then the supernatant was first microfiltered through a 0.2 μm Ultran-Pilot Open Channel PES filter (Whatman) and afterwards concentrated to 1 liter through an Ultran-Pilot Screen Channel PES filter with 30 kDa MWCO (Whatman). Prior to IMAC chromatography, NiSO4 was added to a final concentration of 1 mM. The cleared supernatant was then applied to a HisTrap column (GE Healthcare) previously equilibrated in 50 mM Na2HPO4 pH 7.0, 0.5 M NaCl, 10% glycerol, 0.3% CHAPS, 0.02% NaN3. The column was washed stepwise with the same buffer containing 20 mM, 40 mM and 50 mM imidazole, respectively. The protein was subsequently eluted using a linear gradient to 0.5 M imidazole in 15 column volumes. ATX containing fractions were pooled and concentrated using an Amicon cell equipped with a 30 kDa PES filter membrane. The protein was further purified by size exclusion chromatography on Superdex S-200 prep grade (XK 26/100) (GE Healthcare) in 20 mM BICINE pH 8.5, 0.15 M NaCl, 10% glycerol, 0.3% CHAPS, 0.02% NaN3. […] The protein was stored at −80° C. […] 10 μL of MR121 substrate solution was added (1 μM final concentration), mixed 30 times and then incubated for 15 minutes at 30° C.

| Structure (SMILES) | IC50 [nM] |
| --- | --- |
| NS(=O)(=O)c1ccc(C(=O)N2C[C@H]3CN(C(=O)c4cnc(OC5CCOCC5)c(C5CC5)c4)C[C@@H]3C2)cc1 [Example 1.02, 4-((3aS,6aS)-5-(5-cyclopropyl-6-(tetrahydro-2H-pyran-4-yloxy)nicotinoyl)octahydropyrrolo[3,4-c]pyrrole-2-carbonyl)benzenesulfonamide] | 22 |
| O=C(CCc1c[nH]c(=O)s1)N1C[C@H]2CCN(C(=O)c3cc(OCC4CCOCC4)nc(C4CC4)c3)CC[C@H]2C1 [Example 1.22, 5-(3-((3aR,8aS)-6-(2-cyclopropyl-6-((tetrahydro-2H-pyran-4-yl)methoxy)isonicotinoyl)octahydropyrrolo[3,4-d]azepin-2(1H)-yl)-3-oxopropyl)thiazol-2(3H)-one] | 14 |
| O=C(c1cc(OCC2CCOCC2)nc(C2CC2)c1)N1C[C@@H]2CN(C(=O)c3ccc4[nH]nnc4c3)C[C@H]2C1 [Example 2.01, ((3aS,6aS)-5-(1H-benzo[d][1,2,3]triazole-5-carbonyl)hexahydropyrrolo[3,4-c]pyrrol-2(1H)-yl)(2-cyclopropyl-6-((tetrahydro-2H-pyran-4-yl)methoxy)pyridin-4-yl)methanone] | 3 |
| O=C(c1ccc(OC2CCOC2)c(C2CC2)c1)N1C[C@@H]2CN(C(=O)[C@@H]3CCc4[nH]nnc4C3)C[C@H]2C1 (stereo partly drawn) [Example 2.02, ((3aS,6aS)-5-(3-cyclopropyl-4-(tetrahydrofuran-3-yloxy)benzoyl)hexahydropyrrolo[3,4-c]pyrrol-2(1H)-yl)((R)-4,5,6,7-tetrahydro-1H-benzo[d][1,2,3]triazol-5-yl)methanone] | 17 |
| O=C(c1ccc(OC2CCOC2)c(C2CC2)c1)N1C[C@@H]2CN(C(=O)c3ccc4[nH]nnc4c3)C[C@H]2C1 (stereo partly drawn) [Example 2.03, ((3aR,6aR)-5-(1H-benzo[d][1,2,3]triazole-5-carbonyl)hexahydropyrrolo[3,4-c]pyrrol-2(1H)-yl)(3-cyclopropyl-4-(tetrahydrofuran-3-yloxy)phenyl)methanone] | 10 |
| O=C(c1cnc(NC2CCOCC2)c(C2CC2)c1)N1C[C@@H]2CN(C(=O)c3ccc4[nH]nnc4c3)C[C@H]2C1 [Example 2.04, ((3aS,6aS)-5-(1H-benzo[d][1,2,3]triazole-5-carbonyl)hexahydropyrrolo[3,4-c]pyrrol-2(1H)-yl)(5-cyclopropyl-6-(tetrahydro-2H-pyran-4-ylamino)pyridin-3-yl)methanone] | 40 |
| O=C(c1cnc(OC2CCOC2)c(C2CC2)c1)N1C[C@@H]2CN(C(=O)c3ccc4[nH]nnc4c3)C[C@H]2C1 (stereo partly drawn) [Example 2.05, ((3aS,6aS)-5-(1H-benzo[d][1,2,3]triazole-5-carbonyl)hexahydropyrrolo[3,4-c]pyrrol-2(1H)-yl)(5-cyclopropyl-6-(tetrahydrofuran-3-yloxy)pyridin-3-yl)methanone] | 10.5 |
| O=C(c1cnc(OC2CCCOC2)c(C2CC2)c1)N1C[C@@H]2CN(C(=O)c3ccc4[nH]nnc4c3)C[C@H]2C1 (stereo partly drawn) [Example 2.06, ((3aS,6aS)-5-(1H-benzo[d][1,2,3]triazole-5-carbonyl)hexahydropyrrolo[3,4-c]pyrrol-2(1H)-yl)(5-cyclopropyl-6-(tetrahydro-2H-pyran-3-yloxy)pyridin-3-yl)methanone] | 4.5 |
| O=C(c1cnc(OC2COC2)c(C(F)(F)F)c1)N1C[C@@H]2CN(C(=O)c3ccc4[nH]nnc4c3)C[C@H]2C1 [Example 2.08, ((3aS,6aS)-5-(1H-benzo[d][1,2,3]triazole-5-carbonyl)hexahydropyrrolo[3,4-c]pyrrol-2(1H)-yl)(6-(oxetan-3-yloxy)-5-(trifluoromethyl)pyridin-3-yl)methanone] | 68.5 |
| O=C(c1cnc(OC2CCOCC2)c(C2CC2)c1)N1C[C@@H]2CN(C(=O)[C@@H]3CCc4[nH]nnc4C3)C[C@H]2C1 [Example 2.09, ((3aS,6aS)-5-(5-cyclopropyl-6-(tetrahydro-2H-pyran-4-yloxy)nicotinoyl)hexahydropyrrolo[3,4-c]pyrrol-2(1H)-yl)((R)-4,5,6,7-tetrahydro-1H-benzo[d][1,2,3]triazol-5-yl)methanone] | 20 |
| O=C(c1cnc(NC2CCOCC2)c(C2CC2)c1)N1C[C@@H]2CN(C(=O)[C@@H]3CCc4[nH]nnc4C3)C[C@H]2C1 [Example 2.11, ((3aS,6aS)-5-(5-cyclopropyl-6-(tetrahydro-2H-pyran-4-ylamino)nicotinoyl)hexahydropyrrolo[3,4-c]pyrrol-2(1H)-yl)((R)-4,5,6,7-tetrahydro-1H-benzo[d][1,2,3]triazol-5-yl)methanone] | 9 |
| O=C(c1cnc(OC2CCCOC2)c(C2CC2)c1)N1C[C@@H]2CN(C(=O)[C@@H]3CCc4[nH]nnc4C3)C[C@H]2C1 (stereo partly drawn) [Example 2.12, ((3aS,6aS)-5-(5-cyclopropyl-6-(tetrahydro-2H-pyran-3-yloxy)nicotinoyl)hexahydropyrrolo[3,4-c]pyrrol-2(1H)-yl)((R)-4,5,6,7-tetrahydro-1H-benzo[d][1,2,3]triazol-5-yl)methanone] | 11 |

The remaining compounds from weak to strong by IC50, led by results:

| IC50 [nM] | Structure (SMILES) |
| --- | --- |
| 17 | O=C(c1cc(OCC2CCCOC2)nc(C2CC2)c1)N1C[C@@H]2CN(C(=O)[C@@H]3CCc4[nH]nnc4C3)C[C@H]2C1 (stereo partly drawn) [Example 2.16, ((3aS,6aS)-5-(2-cyclopropyl-6-((tetrahydro-2H-pyran-3-yl)methoxy)isonicotinoyl)hexahydropyrrolo[3,4-c]pyrrol-2(1H)-yl)((R)-4,5,6,7-tetrahydro-1H-benzo[d][1,2,3]triazol-5-yl)methanone] |
| 12 | O=C(c1cc(OCC2CCCOC2)nc(C2CC2)c1)N1C[C@@H]2CN(C(=O)c3ccc4[nH]nnc4c3)C[C@H]2C1 (stereo partly drawn) [Example 2.15, ((3aS,6aS)-5-(1H-benzo[d][1,2,3]triazole-5-carbonyl)hexahydropyrrolo[3,4-c]pyrrol-2(1H)-yl)(2-cyclopropyl-6-((tetrahydro-2H-pyran-3-yl)methoxy)pyridin-4-yl)methanone] |
| 10 | O=C(c1cnc(OC2CCOCC2)c(C2CC2)c1)N1C[C@@H]2CN(C(=O)c3ccc4[nH]nnc4c3)C[C@H]2C1 [Example 2.07, ((3aS,6aS)-5-(1H-benzo[d][1,2,3]triazole-5-carbonyl)hexahydropyrrolo[3,4-c]pyrrol-2(1H)-yl)(5-cyclopropyl-6-(tetrahydro-2H-pyran-4-yloxy)pyridin-3-yl)methanone] |
| 10 | NS(=O)(=O)c1ccc(C(=O)N2C[C@H]3CN(C(=O)c4cnc(OC5CCCOC5)c(C5CC5)c4)C[C@@H]3C2)nc1 (stereo partly drawn) [Example 2.13, 6-((3aR,6aR)-5-(5-cyclopropyl-6-(tetrahydro-2H-pyran-3-yloxy)nicotinoyl)octahydropyrrolo[3,4-c]pyrrole-2-carbonyl)pyridine-3-sulfonamide] |
| 8 | NS(=O)(=O)c1ccc(C(=O)N2C[C@H]3CN(C(=O)c4cc(OCC5CCOCC5)nc(C5CC5)c4)C[C@@H]3C2)cc1F [Example 1.04, 4-((3aR,6aR)-5-(2-cyclopropyl-6-((tetrahydro-2H-pyran-4-yl)methoxy)isonicotinoyl)octahydropyrrolo[3,4-c]pyrrole-2-carbonyl)-2-fluorobenzenesulfonamide] |
| 6 | NS(=O)(=O)c1ccc(C(=O)N2C[C@H]3CN(C(=O)c4cc(OCC5CCOCC5)nc(C5CC5)c4)C[C@@H]3C2)cc1Cl [Example 1.05, 2-chloro-4-((3aR,6aR)-5-(2-cyclopropyl-6-((tetrahydro-2H-pyran-4-yl)methoxy)isonicotinoyl)octahydropyrrolo[3,4-c]pyrrole-2-carbonyl)benzenesulfonamide] |
| 6 | O=C(c1cc(OCC2CCOCC2)cc(C2CC2)c1)N1C[C@@H]2CN(C(=O)[C@@H]3CCc4[nH]nnc4C3)C[C@H]2C1 [Example 1.16, ((3aS,6aS)-5-(3-cyclopropyl-5-((tetrahydro-2H-pyran-4-yl)methoxy)benzoyl)hexahydropyrrolo[3,4-c]pyrrol-2(1H)-yl)((R)-4,5,6,7-tetrahydro-1H-benzo[d][1,2,3]triazol-5-yl)methanone] |
| 6 | NS(=O)(=O)c1ccc(C(=O)N2C[C@H]3CN(C(=O)c4cc(OCC5CCOCC5)nc(C5CC5)c4)C[C@@H]3C2)nc1 [Example 2.14, 6-((3aR,6aR)-5-(2-cyclopropyl-6-((tetrahydro-2H-pyran-4-yl)methoxy)isonicotinoyl)octahydropyrrolo[3,4-c]pyrrole-2-carbonyl)pyridine-3-sulfonamide] |
